Test results: publication PMC7457178 (Biomolecules & Therapeutics, 2020)

Experiments:
HDAC5 phosphorylation = assay: Angiotensin II-induced HDAC5 phosphorylation in neonatal cardiomyocytes; conditions: 0.1 µM angiotensin II
[1] = Pharmacokinetic study in rats; type: in vivo; conditions: rat
Cytotoxicity, L929 = type: cell-based; conditions: mouse, L929 cells
C57BL/6 mice = assay: Transverse aortic constriction; conditions: 30 mg/kg daily oral, 14 days
Cytotoxicity, HFL-1 = type: cell-based; conditions: human, HFL-1 cells
hERG channel = hERG channel (Homo sapiens, UniProt Q12809); assay: Patch clamp for the hERG channel; type: cell-based
Cytotoxicity, NIH3T3 = type: cell-based; conditions: mouse, NIH3T3 cells
Cytotoxicity, VERO = type: cell-based; conditions: African green monkey, VERO cells
in vivo = conditions: Sprague-Dawley (S.D.), rat, iv, 10 mg/kg, Kp (ratio of tissue to plasma concentration), 10 mg/kg i.v.
S.D. rats = assay: Post-MI chronic heart failure model; type: in vivo, rat; conditions: for Fractional shortening / Left ventricular ejection fraction: 12 weeks after coronary artery ligation
GRK2 = molecular target: T1, GRK2 (Homo sapiens, UniProt P25098); assay: Inhibitory activity against GRK2; type: biochemical; conditions: read-out: Inhibition of GRK2
T1 sequence (P25098 1-689): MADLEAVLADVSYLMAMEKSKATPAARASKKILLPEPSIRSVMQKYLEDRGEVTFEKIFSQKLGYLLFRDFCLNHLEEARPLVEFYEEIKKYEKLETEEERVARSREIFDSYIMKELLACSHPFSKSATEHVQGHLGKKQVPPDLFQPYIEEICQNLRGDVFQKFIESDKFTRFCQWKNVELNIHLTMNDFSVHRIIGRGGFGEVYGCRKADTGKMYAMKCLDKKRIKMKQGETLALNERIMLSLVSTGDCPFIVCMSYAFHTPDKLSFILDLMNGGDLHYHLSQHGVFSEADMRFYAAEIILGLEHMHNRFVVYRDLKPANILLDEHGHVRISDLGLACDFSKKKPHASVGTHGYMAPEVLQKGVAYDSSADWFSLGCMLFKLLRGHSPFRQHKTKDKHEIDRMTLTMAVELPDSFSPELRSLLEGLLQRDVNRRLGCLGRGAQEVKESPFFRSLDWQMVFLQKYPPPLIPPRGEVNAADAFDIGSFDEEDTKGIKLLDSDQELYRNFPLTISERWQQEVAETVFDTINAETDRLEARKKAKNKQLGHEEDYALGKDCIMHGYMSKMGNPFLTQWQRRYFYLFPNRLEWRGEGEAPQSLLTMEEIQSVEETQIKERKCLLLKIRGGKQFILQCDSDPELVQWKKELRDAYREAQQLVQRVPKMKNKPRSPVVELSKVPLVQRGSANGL

[2] = test system: neonatal rat cardiomyocytes; assay: Angiotensin II-induced cellular hypertrophy in neonatal cardiomyocytes; conditions: 0.1 µM angiotensin II, 4 days
[3] = Sprague-Dawley (S.D.), plasma, iv, 5 mg/kg
[4] = Sprague-Dawley (S.D.), plasma, po, 300 mg/kg
[5] = 30 mg/kg/day p.o., 12 weeks after MI

hERG channel, sequence (Q12809 whole entry): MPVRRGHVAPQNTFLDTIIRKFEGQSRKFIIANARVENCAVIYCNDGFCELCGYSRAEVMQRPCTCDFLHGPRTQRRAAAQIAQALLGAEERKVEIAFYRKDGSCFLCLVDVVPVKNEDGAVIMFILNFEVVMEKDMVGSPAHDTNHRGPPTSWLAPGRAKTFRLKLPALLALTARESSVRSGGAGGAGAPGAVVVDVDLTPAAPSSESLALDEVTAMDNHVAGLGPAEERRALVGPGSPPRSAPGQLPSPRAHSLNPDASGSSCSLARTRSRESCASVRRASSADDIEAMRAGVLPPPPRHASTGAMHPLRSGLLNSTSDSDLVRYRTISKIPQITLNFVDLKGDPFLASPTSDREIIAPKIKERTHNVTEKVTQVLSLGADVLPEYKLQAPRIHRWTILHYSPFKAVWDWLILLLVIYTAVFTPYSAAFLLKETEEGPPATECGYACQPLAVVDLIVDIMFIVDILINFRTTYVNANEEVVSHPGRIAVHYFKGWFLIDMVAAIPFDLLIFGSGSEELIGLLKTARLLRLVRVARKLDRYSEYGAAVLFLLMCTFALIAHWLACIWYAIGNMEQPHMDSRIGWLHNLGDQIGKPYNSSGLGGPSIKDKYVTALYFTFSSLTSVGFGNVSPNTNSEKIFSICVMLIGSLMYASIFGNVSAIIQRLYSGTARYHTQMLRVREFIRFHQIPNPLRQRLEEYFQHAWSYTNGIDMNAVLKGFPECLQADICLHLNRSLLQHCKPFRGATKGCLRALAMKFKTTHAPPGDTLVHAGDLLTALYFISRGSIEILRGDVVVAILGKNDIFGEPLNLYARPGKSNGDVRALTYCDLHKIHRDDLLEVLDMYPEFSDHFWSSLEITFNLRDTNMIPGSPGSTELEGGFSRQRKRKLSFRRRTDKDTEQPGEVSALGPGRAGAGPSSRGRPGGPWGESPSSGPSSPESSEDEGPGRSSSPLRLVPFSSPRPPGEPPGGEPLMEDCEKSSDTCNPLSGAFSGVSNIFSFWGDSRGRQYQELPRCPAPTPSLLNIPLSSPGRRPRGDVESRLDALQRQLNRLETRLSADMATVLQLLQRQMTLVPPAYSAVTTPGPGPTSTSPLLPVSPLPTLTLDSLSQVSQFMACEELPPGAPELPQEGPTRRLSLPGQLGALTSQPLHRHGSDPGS

For `NCCCNCCCCNCCCNc1cc2nc(-c3ccccc3Cl)[nH]c(=O)c2cc1F` [KR-39038, 7-((3-((4-((3-aminopropyl)amino)butyl)amino)propyl)amino)-2-(2-chlorophenyl)-6-fluoroquinazolin-4(3H)-one], the “Effect on angiotensin II-induced phosphorylation of HDAC5” value (HDAC5 phosphorylation) was “effectively downregulated”, the AUC(0-inf) [1, 3] was 3.4 ± 1 µg·h/mL and the Vd [1, 3] was 1.2 ± 0.2 L/kg. It also gave a clearance [1, 3] of 1.6 L/h/kg, a half-life [1, 3] of 42 ± 2.4 min and an AUC(0-inf) ([1]; Sprague-Dawley (S.D.), plasma, iv, 10 mg/kg) of 3.4 ± 1 µg·h/mL. It also gave an AUC(0-inf) [1, 4] of 8.9 ± 5 µg·h/mL, a Cmax [1, 4] of 5.2 ± 2.8 µg/mL and a Tmax [1, 4] of 42 ± 12 min. For the same compound, the half-life [1, 4] was 138 ± 174 min, the “F (oral bioavailability)” value ([1]; 300 mg/kg p.o., 300 mg/kg) was 4.3 ± 2.4% and the EC50 (Cytotoxicity, L929) was 89.9 µM. The “Reduction in the left ventricular weight” value (C57BL/6 mice) was 43%, the EC50 (Cytotoxicity, HFL-1) was > 100 µM and the IC50 (hERG channel) was > 50 µM. The EC50 (Cytotoxicity, NIH3T3) was 61.1 µM, the EC50 (Cytotoxicity, VERO) was > 100 µM and the Kp at 4 h (in vivo; brain) was 11.3. The Kp at 4 h (in vivo; heart) was 16.9, the Kp at 4 h (in vivo; kidney) was 26.3 and the Kp at 4 h (in vivo; liver) was 10.4. For the same compound, the Kp at 4 h (in vivo; lung) was 2.7, the Kp at 4 h (in vivo; plasma) was 1 and the Survival rate (S.D. rats; 10 mg/kg/day p.o., 12 weeks after MI) was 80%. The Fractional shortening (S.D. rats; 10 mg/kg/day p.o.) was 23.4 ± 1.6%, the “Left ventricular ejection fraction” value (S.D. rats; 10 mg/kg/day p.o.) was 44.3 ± 2.6% and the Interstitial fibrosis (S.D. rats; [5]) was 16.3 ± 1.6%. It also gave a Myocyte cross-sectional area (S.D. rats; [5]) of 420.1 ± 21.2 µm^2, a Survival rate (S.D. rats; [5]) of 73% and a Fractional shortening (S.D. rats; 30 mg/kg/day p.o.) of 22.6 ± 1.3%. For the same compound, the “Left ventricular ejection fraction” value (S.D. rats; 30 mg/kg/day p.o.) was 43.4 ± 2.3%, the inhibition at 10 µM (GRK2) was 5.9% and the “Effect on angiotensin II-induced cellular hypertrophy (cell surface area)” value [2] was “concentration-dependently inhibited”.

`C[C@H](CS)C(=O)N1CCC[C@H]1C(=O)O` [captopril, reference compound] showed a Survival rate (S.D. rats; [5]) of 67%.

In the case of `CC(C)c1ccc2oc3nc(N)c(C(=O)O)cc3c(=O)c2c1` [amlexanox, reference compound], the “Effect on angiotensin II-induced phosphorylation of HDAC5” value (HDAC5 phosphorylation) is reported as “effectively downregulated” and the “Effect on angiotensin II-induced cellular hypertrophy (cell surface area)” value [2] is reported as “concentration-dependently inhibited”.
